Measurements as given in the OPERA property sets (Mansouri et al. 2018).
Values after ≈ are worked out from the molar mass of the structure shown.

Compound	logP	other results
COc1cc(OC)n2nc(S(=O)(=O)Nc3c(Cl)ccc(C)c3Cl)nc2n1	3.08	solubility (20 °C): 478 µM (≈ 200 µg/mL)
CCCCOCN(C(=O)CCl)c1c(CC)cccc1CC		solubility (20 °C): 68.8 µM (≈ 21.4 µg/mL)
COC(=O)CSc1cc(/N=c2\sc(=O)n3n2CCCC3)c(F)cc1Cl	3.77	
CCCC(=NOCC)C1=C(O)CC(C2CCCSC2)CC1=O (stereo not given)		solubility (20 °C): 123 µM (≈ 40 µg/mL)
CCc1cccc(C)c1N(COC(C)C)C(=O)CCl	3.5	
COc1nc(C)nc(NC(=O)NS(=O)(=O)c2ccccc2OCCCl)n1		logD (pH 5.0): 1.1; solubility (pH 5.0, 25 °C): 79.6 µM (≈ 32 µg/mL)
COP(=O)(OC)OC1=C(Cl)C2C=CCC12 (stereo not given)	2.32	
CCOC(=O)C1(C)OC(=O)N(c2cc(Cl)cc(Cl)c2)C1=O (stereo not given)	3.15	
O=c1c2cc(F)ccc2nc(-n2cncn2)n1-c1ccc(Cl)cc1Cl		logD (pH 5.6): 3.24
CSC(=O)c1cccc2nnsc12	3.1	solubility (25 °C): 36.6 µM (≈ 7.7 µg/mL)
CC(C)OC(=O)C(O)(c1ccc(Br)cc1)c1ccc(Br)cc1	5.4	
CCCN(CCC)c1c([N+](=O)[O-])cc(S(N)(=O)=O)cc1[N+](=O)[O-]	3.73	
Cc1cc(C)nc(NC(=O)NS(=O)(=O)c2ccccc2C(=O)OC2COC2)n1		solubility (pH 5.1, 25 °C): 128 µM (≈ 52 µg/mL)
CCS(=O)(=O)c1nc2ccccn2c1S(=O)(=O)NC(=O)Nc1nc(OC)cc(OC)n1		solubility (pH 5.0, 20 °C): 38.1 µM (≈ 17.9 µg/mL)
CCNc1nc(Cl)nc(NC(C)(C)C)n1	3.21	solubility (pH 7.0, 20 °C): 39.6 µM (≈ 9.09 µg/mL)
COC(=O)c1c(Cl)c(Cl)c(C(=O)OC)c(Cl)c1Cl	4.28	solubility (25 °C): 1.51 µM (≈ 0.5 µg/mL)
CCOP(=O)(SC(C)CC)SC(C)CC (stereo not given)	3.9	solubility (25 °C): 917 µM (≈ 248 µg/mL)
CCOP(=S)(OCC)Oc1ccc(=O)n(-c2ccccc2)n1	3.2	solubility (20 °C): 294 µM (≈ 100 µg/mL)
CCS(=O)(=O)c1cccnc1S(=O)(=O)NC(=O)Nc1nc(OC)cc(OC)n1		logD (pH 5.0): 0.29
CC(Oc1ccc(Oc2ncc(C(F)(F)F)cc2Cl)cc1)C(=O)O (stereo not given)		solubility (pH 2.6, 25 °C): 120 µM (≈ 43.4 µg/mL)
C[Si](Cn1cncn1)(c1ccc(F)cc1)c1ccc(F)cc1		solubility (pH 7.2, 20 °C): 171 µM (≈ 54 µg/mL)
O=c1oc2ccccc2c(O)c1C1CC(c2ccc(-c3ccc(Br)cc3)cc2)Cc2ccccc21 (stereo not given)	8.5	
CCOc1ccccc1OS(=O)(=O)NC(O)=Nc1nc(OC)cc(OC)n1	2.89	solubility (pH 5.0, 20 °C): 65.3 µM (≈ 26 µg/mL)
CNC(=O)CSP(=O)(OC)OC	-0.74	
Cc1ccc(NC(O)=NC(C)(C)c2ccccc2)cc1		solubility (20 °C): 4.47 µM (≈ 1.2 µg/mL)
Cc1cc(C)nc(Nc2ccccc2)n1		logD (pH 6.1): 2.84; solubility (pH 6.1, 25 °C): 607 µM (≈ 121 µg/mL)
CC#Cc1cc(C)nc(Nc2ccccc2)n1	3.28	

Compound	logP	other results
COc1cccc(C(=O)NN(C(=O)c2cc(C)cc(C)c2)C(C)(C)C)c1C	3.7	solubility: < 2.71 µM
COC(=O)[C@@H](C)N(C(=O)c1ccccc1)c1ccc(F)c(Cl)c1	3	
CCC1(CC2(c3cccc(Cl)c3)CO2)C(=O)c2ccccc2C1=O (stereo not given)		solubility (25 °C): 41.1 µM (≈ 14 µg/mL)
CC1(C)CCC(=Cc2ccc(Cl)cc2)C1(O)Cn1cncn1 (stereo not given)	3.29	
C#CCOc1cc(-n2nc(C(C)(C)C)oc2=O)c(Cl)cc1Cl	3.95	solubility (20 °C): 1.08 µM (≈ 0.37 µg/mL)
O=C1c2ccccc2C(=O)N1SC(Cl)(Cl)Cl		solubility (25 °C): 2.7 µM (≈ 0.8 µg/mL)
Nc1c(Cl)cc([N+](=O)[O-])cc1Cl	2.8	
COP(N)(=O)SC (stereo not given)	-0.8	
O=C(Nc1ccccc1)Nc1ccnc(Cl)c1	3.2	
CC(C)(COCc1cccc(Oc2ccccc2)c1)c1ccc(OC(F)(F)Br)cc1		solubility (25 °C): 0.000105 µM (≈ 5e-05 µg/mL)
CCOC(=O)C1=NN(c2ccc(Cl)cc2Cl)C(C)(C(=O)OCC)C1 (stereo not given)	3.83	solubility (pH 6.2, 20 °C): 53.6 µM (≈ 20 µg/mL)
COc1ccsc1CN(C(=O)CCl)c1c(C)cccc1C	3.53	solubility (20 °C): 34 µM (≈ 11 µg/mL)
CN(C)S(=O)(=O)N(SC(F)(Cl)Cl)c1ccccc1	3.7	
CC1(C)OC[C@@H]2O[C@@]3(C(=O)O)OC(C)(C)O[C@H]3[C@@H]2O1	1.35	
COC(=O)c1c(C(F)F)nc(C(F)(F)F)c(C2=NCCS2)c1CC(C)C	3.89	
O=C(NC(=O)c1c(F)cccc1F)Nc1cc(Cl)c(OC(F)(F)C(F)C(F)(F)F)cc1Cl (stereo not given)	5.12	
CNC(=O)ON=C(C)C(C)SC (stereo not given)	1.1	solubility (20 °C): 184000 µM (≈ 35000 µg/mL)
CCOP(=S)(OCC)OC(Cl)C(Cl)(Cl)Cl (stereo not given)		solubility (20 °C): < 2.98 µM
CCCCCC(C)OC(=O)COc1ccc(Cl)c2cccnc12 (stereo not given)	5.03	solubility (25 °C): 1.76 µM (≈ 0.59 µg/mL)
C#CCOC(=O)[C@@H](C)Oc1ccc(Oc2ncc(Cl)cc2F)cc1	3.9	
CN(C(=O)COc1nc2ccccc2s1)c1ccccc1	3.23	
C[C@H](Oc1ccc(Oc2nc3ccc(Cl)cc3o2)cc1)C(=O)O		solubility (pH 5.1, 20 °C): 809 µM (≈ 270 µg/mL)
C=CCCCOC(=O)C(CC)N(Cc1ccco1)C(=O)n1ccnc1 (stereo not given)	3	
CN=C(O)/C(=N/OC)c1ccccc1Oc1ccccc1	2.32	
C=CCOC1=NS(=O)(=O)c2ccccc21		solubility: 672 µM (≈ 150 µg/mL)
CON=C(Cc1cccnc1)c1ccc(Cl)cc1Cl	3.7	
CC1(C)OC(c2ccco2)CN1C(=O)C(Cl)Cl (stereo not given)	2.12	solubility (20 °C): 708 µM (≈ 197 µg/mL)
